Reference: the NIST ThermoML archive (doi:10.1021/acs.jced.5b00820)
Several values for one entry are separate records, joined by “and”; a condition that tells them apart may be missing. Equal values may be shown once. ± gives the expanded uncertainty stated by the source.

Columns and labels:
[1] = refractive index (Na D-line) (dimensionless); conditions: 102.2 kPa, Liquid, Standard Abbe refractometry
[2] = 102.2 kPa, Liquid, Vibrating tube method
[3] = refractive index (Na D-line) (dimensionless); xn = mol fraction of the nth substance listed; conditions: 102.2 kPa, Liquid, Standard Abbe refractometry, x2 = 0
[4] = xn = mol fraction of the nth substance listed; conditions: 102.2 kPa, Liquid, Vibrating tube method, x2 = 0

Row | refractive index ([1]; 308.15 K) | refractive index ([1]; 313.15 K) | refractive index ([1]; 318.15 K) | refractive index ([1]; 323.15 K) | refractive index ([1]; 328.15 K) | mass density ([2]; 308.15 K) | mass density ([2]; 313.15 K) | mass density ([2]; 318.15 K) | mass density ([2]; 323.15 K) | mass density ([2]; 328.15 K) | refractive index ([3]; 308.15 K) | refractive index ([3]; 313.15 K) | refractive index ([3]; 318.15 K) | refractive index ([3]; 323.15 K) | refractive index ([3]; 328.15 K) | mass density ([4]; 308.15 K) [kg/m3] | mass density ([4]; 313.15 K) [kg/m3] | mass density ([4]; 318.15 K) [kg/m3] | mass density ([4]; 323.15 K) [kg/m3] | mass density ([4]; 328.15 K) [kg/m3] | SMILES
1 | 1.36015 ± 0.00035 | 1.35814 ± 0.00035 | 1.35614 ± 0.00035 | 1.35413 ± 0.00035 | 1.35215 ± 0.00035 | 1236.82 ± 0.23 kg/m3 | 1230.2 ± 0.23 kg/m3 | 1223.61 ± 0.23 kg/m3 | 1217.06 ± 0.23 kg/m3 | 1210.43 ± 0.23 kg/m3 |  |  |  |  |  |  |  |  |  |  | C[Si]1(CCC(F)(F)F)O[Si](C)(CCC(F)(F)F)O[Si](C)(CCC(F)(F)F)O1 (stereo not given)
2 |  |  |  |  |  |  |  |  |  |  | 1.36015 ± 0.00035 | 1.35814 ± 0.00035 | 1.35614 ± 0.00035 | 1.35413 ± 0.00035 | 1.35215 ± 0.00035 | 1236.82 ± 0.23 | 1230.2 ± 0.23 | 1223.61 ± 0.23 | 1217.06 ± 0.23 | 1210.43 ± 0.23 | C[Si]1(CCC(F)(F)F)O[Si](C)(CCC(F)(F)F)O[Si](C)(CCC(F)(F)F)O1 (stereo not given) + C[Si](C)(O[Si](C)(C)c1ccccc1)c1ccccc1
3 | 1.40445 ± 0.00036 | 1.40178 ± 0.00036 | 1.39912 ± 0.00036 | 1.39644 ± 0.00036 | 1.39378 ± 0.00036 | 797.99 ± 0.23 kg/m3 | 793.04 ± 0.23 kg/m3 | 788.05 ± 0.24 kg/m3 | 783.06 ± 0.24 kg/m3 | 778.04 ± 0.24 kg/m3 |  |  |  |  |  |  |  |  |  |  | C=C[Si](C)(C)O[Si](C)(C)C=C [1,3-diethenyl-1,1,3,3-tetramethyldisiloxane]
4 |  |  |  |  |  |  |  |  |  |  | 1.40445 ± 0.00036 | 1.40178 ± 0.00036 | 1.39912 ± 0.00036 | 1.39644 ± 0.00036 | 1.39378 ± 0.00036 | 797.99 ± 0.23 | 793.04 ± 0.23 | 788.05 ± 0.24 | 783.06 ± 0.24 | 778.04 ± 0.24 | C=C[Si](C)(C)O[Si](C)(C)C=C [1,3-diethenyl-1,1,3,3-tetramethyldisiloxane] + C[Si](C)(O[Si](C)(C)c1ccccc1)c1ccccc1
5 | 1.42751 ± 0.00035 | 1.42514 ± 0.00035 | 1.42275 ± 0.00035 | 1.4204 ± 0.0004 | 1.41802 ± 0.00035 | 972.64 ± 0.21 kg/m3 | 967.49 ± 0.21 kg/m3 | 962.36 ± 0.21 kg/m3 | 957.2 ± 0.21 kg/m3 | 952.03 ± 0.21 kg/m3 |  |  |  |  |  |  |  |  |  |  | C=C[Si]1(C)O[Si](C)(C=C)O[Si](C)(C=C)O[Si](C)(C=C)O1 (stereo not given) [2,4,6,8-tetramethyl-2,4,6,8-tetravinylcycloterasiloxane]
6 |  |  |  |  |  |  |  |  |  |  | 1.42751 ± 0.00035 | 1.42514 ± 0.00035 | 1.42275 ± 0.00035 | 1.4204 ± 0.0004 | 1.41802 ± 0.00035 | 972.64 ± 0.21 | 967.49 ± 0.21 | 962.36 ± 0.21 | 957.2 ± 0.21 | 952.03 ± 0.21 | C=C[Si]1(C)O[Si](C)(C=C)O[Si](C)(C=C)O[Si](C)(C=C)O1 (stereo not given) [2,4,6,8-tetramethyl-2,4,6,8-tetravinylcycloterasiloxane] + C[Si](C)(O[Si](C)(C)c1ccccc1)c1ccccc1
7 | 1.38924 ± 0.00036 | 1.38671 ± 0.00036 | 1.38419 ± 0.00036 | 1.38168 ± 0.00036 | 1.37916 ± 0.00036 | 938.88 ± 0.22 kg/m3 | 933.06 ± 0.22 kg/m3 | 927.34 ± 0.22 kg/m3 | 921.59 ± 0.22 kg/m3 | 915.8 ± 0.22 kg/m3 |  |  |  |  |  |  |  |  |  |  | C[Si]1(C)O[Si](C)(C)O[Si](C)(C)O[Si](C)(C)O1 [octamethylcyclotetrasiloxane]
8 |  |  |  |  |  |  |  |  |  |  | 1.38924 ± 0.00036 | 1.38671 ± 0.00036 | 1.38419 ± 0.00036 | 1.38168 ± 0.00036 | 1.37916 ± 0.00036 | 938.88 ± 0.22 | 933.06 ± 0.22 | 927.34 ± 0.22 | 921.59 ± 0.22 | 915.8 ± 0.22 | C[Si]1(C)O[Si](C)(C)O[Si](C)(C)O[Si](C)(C)O1 [octamethylcyclotetrasiloxane] + C[Si](C)(O[Si](C)(C)c1ccccc1)c1ccccc1

Row | SMILES | refractive index ([1]; 308.15 K) | refractive index ([1]; 313.15 K) | refractive index ([1]; 318.15 K) | refractive index ([1]; 323.15 K) | refractive index ([1]; 328.15 K) | mass density ([2]; 308.15 K) | mass density ([2]; 313.15 K) | mass density ([2]; 318.15 K) | mass density ([2]; 323.15 K) | mass density ([2]; 328.15 K) | refractive index ([3]; 308.15 K) | refractive index ([3]; 313.15 K) | refractive index ([3]; 318.15 K) | refractive index ([3]; 323.15 K) | refractive index ([3]; 328.15 K) | mass density ([4]; 308.15 K) [kg/m3] | mass density ([4]; 313.15 K) [kg/m3] | mass density ([4]; 318.15 K) [kg/m3] | mass density ([4]; 323.15 K) [kg/m3] | mass density ([4]; 328.15 K) [kg/m3]
9 | C[Si](C)(O[Si](C)(C)c1ccccc1)c1ccccc1 [1,3-diphenyltetramethyldisiloxane] | 1.51064 ± 0.00035 [middle of 4 runs] | 1.50832 ± 0.00035 [middle of 4 runs] | 1.50605 ± 0.00035 [middle of 4 runs] | 1.50377 ± 0.00035 [middle of 4 runs] | 1.50144 ± 0.00035 [middle of 4 runs] | 968.05 ± 0.21 kg/m3 and 967.99 ± 0.21 kg/m3 and 967.9 ± 0.21 kg/m3 | 963.92 ± 0.21 kg/m3 [middle of 4 runs] | 959.8 ± 0.21 kg/m3 [middle of 4 runs] | 955.69 ± 0.21 kg/m3 [middle of 4 runs] | 951.57 ± 0.21 kg/m3 and 951.58 ± 0.21 kg/m3 and 951.65 ± 0.21 kg/m3 |  |  |  |  |  |  |  |  |  | 
